Reference: ChEMBL document CHEMBL1201862, “PubChem BioAssay data set” (2004)
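Five concentrations, 48 hours, 96-well plates. GI50: concentration for 50% inhibition of growth.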 The source made the active and inactive calls. No stated cut-off is given here; in the data, active = GI50 up to about 1.1 µM and inactive = higher.

Experiments:
Test in all cases: NCI anticancer screen, dose series, 48 h
OVCAR-4 = system: OVCAR-4
Hs-578T = system: Hs-578T
COLO 205 = system: COLO 205
LOX IMVI = system: LOX IMVI
TK-10 = system: TK-10
OVCAR-3 = system: OVCAR-3
KM12 = system: KM12
HT-29 = system: HT-29
HL-60 = system: HL-60
786-0 = system: 786-0
RXF 393 = system: RXF 393
SR = system: SR
HOP-62 = system: HOP-62
IGROV-1 = system: IGROV-1
T47D = system: T47D
SF-268 = system: SF-268
EKVX = system: EKVX
PC-3 = system: PC-3
SF-295 = system: SF-295
MDA-MB-231 = system: MDA-MB-231
HCC 2998 = system: HCC 2998
HOP-92 = system: HOP-92
NCI-H460 = system: NCI-H460
NCI-H226 = system: NCI-H226
M14 = system: M14
CCRF-CEM = system: CCRF-CEM
SNB-19 = system: SNB-19
SK-MEL-28 = system: SK-MEL-28
SK-MEL-2 = system: SK-MEL-2
SK-MEL-5 = system: SK-MEL-5
U-251 = system: U-251
MDA-N = system: MDA-N
K562 = system: K562
MCF7 = system: MCF7
MDA-MB-435 = system: MDA-MB-435
NCI-H23 = system: NCI-H23
NCI/ADR-RES = system: NCI/ADR-RES
UO-31 = system: UO-31
CAKI-1 = system: CAKI-1
A549 = system: A549
UACC-62 = system: UACC-62
HCT-15 = system: HCT-15
A498 = system: A498
SF-539 = system: SF-539
RPMI-8226 = system: RPMI-8226
OVCAR-5 = system: OVCAR-5
SNB-75 = system: SNB-75
Malme-3M = system: Malme-3M
MOLT-4 = system: MOLT-4
SK-OV-3 = system: SK-OV-3
OVCAR-8 = system: OVCAR-8
ACHN = system: ACHN
DU-145 = system: DU-145
SW-620 = system: SW-620
UACC-257 = system: UACC-257
SN12C = system: SN12C
HCT-116 = system: HCT-116
NCI-H522 = system: NCI-H522

Measured: GI50

CC(C)[Si](OC1=C(C(=O)N(C)c2cccc(Cl)c2)CCCC1)(C(C)C)C(C)C
inactive: OVCAR-4 12.7 µM | Hs-578T 12.5 µM | COLO 205 15.1 µM | LOX IMVI 17.3 µM | TK-10 15.4 µM | OVCAR-3 14 µM | KM12 13.5 µM | HT-29 15.3 µM | HL-60 5.61 µM | 786-0 18.3 µM | RXF 393 3.4 µM | SR 9.16 µM | HOP-62 17.6 µM | IGROV-1 17.2 µM | T47D 2.91 µM | SF-268 13.3 µM | EKVX 15.6 µM | PC-3 8.61 µM | SF-295 11 µM | MDA-MB-231 16 µM | HCC 2998 17 µM | HOP-92 12.4 µM | NCI-H460 14.1 µM | NCI-H226 15.8 µM | M14 15.1 µM | CCRF-CEM 29.7 µM | SNB-19 16.6 µM | SK-MEL-28 13.6 µM | SK-MEL-2 15.5 µM | SK-MEL-5 14.1 µM | U-251 13.8 µM | MDA-N 17.4 µM | K562 4.94 µM | MCF7 12.3 µM | MDA-MB-435 15.5 µM | NCI-H23 11.7 µM | NCI/ADR-RES 12.6 µM | UO-31 14.5 µM | CAKI-1 13.2 µM | A549 4.41 µM | UACC-62 14.7 µM | A498 16.9 µM | SF-539 17.3 µM | RPMI-8226 8.73 µM | OVCAR-5 10.1 µM | SNB-75 10.4 µM | Malme-3M 11.7 µM | MOLT-4 10.4 µM | SK-OV-3 16.6 µM | OVCAR-8 16.8 µM | ACHN 16.2 µM | DU-145 11.7 µM | SW-620 13.6 µM | UACC-257 12.5 µM
14 µM: HCT-15

O=C1CC(c2ccsc2)n2cccc21 (centres undefined)
inactive: OVCAR-4 > 100 µM | Hs-578T > 100 µM | COLO 205 > 100 µM | TK-10 > 100 µM | OVCAR-3 > 100 µM | KM12 > 100 µM | HT-29 > 100 µM | HL-60 > 100 µM | 786-0 > 100 µM | RXF 393 > 100 µM | SR > 100 µM | HOP-62 > 100 µM | IGROV-1 > 100 µM | SN12C > 100 µM | T47D > 100 µM | SF-268 > 100 µM | EKVX > 100 µM | PC-3 > 100 µM | SF-295 > 100 µM | MDA-MB-231 > 100 µM | HCC 2998 > 100 µM | HOP-92 > 100 µM | NCI-H226 > 100 µM | M14 > 100 µM | CCRF-CEM > 100 µM | SNB-19 > 100 µM | SK-MEL-28 > 100 µM | SK-MEL-2 > 100 µM | SK-MEL-5 > 100 µM | U-251 > 100 µM | K562 > 100 µM | MCF7 > 100 µM | MDA-MB-435 > 100 µM | NCI-H23 > 100 µM | NCI/ADR-RES > 100 µM | UO-31 > 100 µM | CAKI-1 > 100 µM | A549 > 100 µM | UACC-62 > 100 µM | A498 > 100 µM | SF-539 > 100 µM | RPMI-8226 > 100 µM | OVCAR-5 > 100 µM | SNB-75 32.1 µM | MOLT-4 > 10 µM | SK-OV-3 > 100 µM | HCT-116 > 100 µM | OVCAR-8 > 100 µM | ACHN > 100 µM | DU-145 > 100 µM | NCI-H522 > 100 µM | SW-620 > 100 µM | UACC-257 > 100 µM
> 100 µM: HCT-15

CC(=O)O[C@H]1C(=O)[C@@]2(C)C(C(OC(=O)c3ccccc3)[C@]3(O)CC(OC(=O)[C@H](OC(=O)CCC(=O)O)C(NC(=O)c4ccccc4)c4ccccc4)C(C)=C1C3(C)C)C1(OC(C)=O)COC1C[C@@H]2OC(=O)CCC(=O)O (some centres undefined)
active: T47D 0.822 µM
inactive: OVCAR-4 > 79.4 µM | SK-MEL-28 5.6 µM | UO-31 83.9 µM | Malme-3M 11.6 µM
